Measured values reported in ChEMBL document CHEMBL3885861, “Open TG-GATES”.

Organism: Rattus norvegicus
Experiment: Open TG-GATES - Regimen: Daily Repeat
Format: toxicity, organism-based, Sprague-Dawley
Parameters: regimen Daily Repeat, gender Male, age 6 weeks
Conditions: in vivo, po, 300 mg/kg, route gavage, dose level Middle; for APTT / Bas / Eos / Fbg / Hb / Ht / Lym / MCH / MCHC / MCV / Mono / Neu / PT / Plat / RBC / Ret / WBC: tissue Blood
[1] = 72 h, tissue Kidney, time 3 day
[2] = 72 h, tissue Plasma, time 3 day

Work on CN(C)[C@@H]1C(O)=C(C(N)=O)C(=O)[C@@]2(O)C(O)=C3C(=O)c4c(O)cccc4[C@@](C)(O)[C@H]3C[C@@H]12 [TETRACYCLINE] yielded a TERMINAL_BW (72 h, time 3 day) of 189.9 g, an APTT (72 h, time 3 day) of 16.3 s and a Bas (72 h, time 3 day) of 0%. The Eos (72 h, time 3 day) was 0.6%, the Fbg (72 h, time 3 day) was 239.2 mg/dL and the Hb (72 h, time 3 day) was 13.6 g/dL. The Ht (72 h, time 3 day) was 40.7%, the Lym (72 h, time 3 day) was 87.4% and the MCH (72 h, time 3 day) was 21.9 pg. For the same compound, the MCHC (72 h, time 3 day) was 33.4%, the MCV (72 h, time 3 day) was 65.7 fL and the Mono (72 h, time 3 day) was 5.6%. The Neu (72 h, time 3 day) was 6%, the PT (72 h, time 3 day) was 12.3 s and the Plat (72 h, time 3 day) was 99.5 x10_4/uL. It also gave an RBC (72 h, time 3 day) of 620.2 x10_4/ul, a Ret (72 h, time 3 day) of 5.8% and a WBC (72 h, time 3 day) of 89.4 x10_2/uL. For the same compound, the KIDNEY_L [1] was 0.9 g, the KIDNEY_R [1] was 0.9 g and the KIDNEY_TOTAL [1] was 1.8 g. For the same compound, the LIVER (72 h, tissue Liver, time 3 day) was 8.8 g, the A/G [2] was 1.9 and the ALP [2] was 1035.4 IU/L. The ALT [2] was 35.6 IU/L, the AST [2] was 66.8 IU/L and the BUN [2] was 16.2 mg/dL. For the same compound, the CRE [2] was 0.6 mg/dL, the Ca [2] was 10.9 mg/dL and the Cl [2] was 107.2 meq/L. The DBIL [2] was 0.01 mg/dL, the GLC [2] was 180.6 mg/dL and the IP [2] was 9.8 mg/dL. For the same compound, the K [2] was 4.8 meq/L, the LDH [2] was 122.6 IU/L and the Na [2] was 141 meq/L. For the same compound, the PL [2] was 147.2 mg/dL, the RALB [2] was 3.8 g/dL and the TBIL [2] was 0.3 mg/dL. It also gave a TC [2] of 93.6 mg/dL, a TG [2] of 42.6 mg/dL and a TP [2] of 5.8 g/dL. It also gave a gamma-GTP [2] of 1.6 IU/L, a TERMINAL_BW ([…], time 7 day) of 227.9 g and a TERMINAL_BW ([…], time 14 day) of 275.6 g. It also gave a TERMINAL_BW ([…], time 28 day) of 341 g, an APTT ([…], time 7 day) of 17.9 s and a Bas ([…], time 7 day) of 0%. For the same compound, the Eos ([…], time 7 day) was 1%, the Fbg ([…], time 7 day) was 238.5 mg/dL and the Hb ([…], time 7 day) was 13.9 g/dL. The Ht ([…], time 7 day) was 41.5%, the Lym ([…], time 7 day) was 85% and the MCH ([…], time 7 day) was 21 pg. For the same compound, the MCHC ([…], time 7 day) was 33.4%, the MCV ([…], time 7 day) was 62.9 fL and the Mono ([…], time 7 day) was 7%. The Neu ([…], time 7 day) was 7.2%, the PT ([…], time 7 day) was 12.1 s and the Plat ([…], time 7 day) was 102 x10_4/uL. It also gave an RBC ([…], time 7 day) of 660.2 x10_4/ul, a Ret ([…], time 7 day) of 7.2% and a WBC ([…], time 7 day) of 135.8 x10_2/uL. The APTT ([…], time 14 day) was 16.7 s, the Bas ([…], time 14 day) was 0% and the Eos ([…], time 14 day) was 0.6%. It also gave a Fbg ([…], time 14 day) of 224 mg/dL, a Hb ([…], time 14 day) of 14 g/dL and a Ht ([…], time 14 day) of 42.2%. For the same compound, the Lym ([…], time 14 day) was 88.8%, the MCH ([…], time 14 day) was 20.3 pg and the MCHC ([…], time 14 day) was 33.3%. For the same compound, the MCV ([…], time 14 day) was 60.8 fL, the Mono ([…], time 14 day) was 4.8% and the Neu ([…], time 14 day) was 5.8%. The PT ([…], time 14 day) was 11.9 s, the Plat ([…], time 14 day) was 101.9 x10_4/uL and the RBC ([…], time 14 day) was 694 x10_4/ul. For the same compound, the Ret ([…], time 14 day) was 5.3%, the WBC ([…], time 14 day) was 135.4 x10_2/uL and the APTT ([…], time 28 day) was 16.5 s. For the same compound, the Bas ([…], time 28 day) was 0%, the Eos ([…], time 28 day) was 1% and the Fbg ([…], time 28 day) was 222.6 mg/dL. For the same compound, the Hb ([…], time 28 day) was 14.6 g/dL and the Ht ([…], time 28 day) was 43.4%.
